Measured values taken from US4939175A, “Use of N,N-dimethyl-1-[1-(4-chlorophenyl)cyclobutyl]-3-methylbutylamine” (priority 1988, dated 1990).
Where two headings read alike, the source gives them in different places.

Assays:
[1] = system: depletion of dopamine induced by MPTP in mice whole brain; experiment: animal or person; assay type: in vivo, SlC: ddy strain male mice; settings: Mus musculus, po, 168 h, read-out: Percentage of the amount of dopamine in the treated group against the amount of dopamine in the non-treated group
[2] = system: depletion of norepinephrine induced by 6-hydroxydopamine in rat heart; experiment: Depletion of norepinephrine induced by 6-hydroxydopamine in rat heart; assay type: in vivo, Std: Wistar male rats; settings: 6-hydroxydopamine 20 mg/kg i.p., control 20 ± 4, non-treatment 425 ± 49, **p < 0.01
Procedure: Effect of the test samples on the depletion of norepinephrine induced by 6-hydroxydopamine in rat heart.
The test sample was administered orally to Std: Wistar male rats and after 30 minutes, 6-hydroxydopamine (20 mg/kg) was injected intraperitoneally.
At 16 hours after injection of 6-hydroxydopamine, the rats were killed. The whole heart was rapidly removed and homogenized in 0.05M perchloric acid with isoproterenol (10 mg/ml) as an internal standard. The homogenate was centrifuged and then the amount of norepinephrine in the supernatant was determined by means of high performance liquid chromatography with electrochemical detection.
Desipramine was used as the reference drug and distilled water was used as control sample.

[3] = Acute toxicity, oral, mice; design: species or system SlC:ddy male mice; settings: mouse, in vivo, read-out: Number of dead mice per 10 mice
Procedure: SlC:ddy male mice (10 heads/group) were used.
After the oral administration of the test smaple, desipramine was used as the test drug, to the mice, the number of the dead mice was counted at 0.5, 1, 2, 4, 18 and 24 hours respectively after the oral administration.

[4] = system: re-uptake of ^3 H-dopamine; experiment: Re-uptake of 3H-dopamine in vitro (synaptosomes, P2 fraction of whole brain); assay type: biochemical, Std: Wistar strain male rat; settings: Experiment II, rat brain synaptosomes, 37° C., 20 minutes
Procedure: Effect of the test samples on the re-uptake of ^3 H-dopamine in vitro
P2 fraction was prepared from the whole brain of Std: Wistar strain male rat. […] The obtained mixture was incubated at 37° C. for 20 minutes and then subjected to the suction filtration with Whatman GF/B filter paper.
The obtained filter paper was put in a vial containing 10 ml of toluene type scintillator and its radioactivity was measured by means of liquid scintillation counter. The amount of the specific re-uptake of ^3 H-dopamine was obtained by subtracting the amount of re-uptake at 0° C. as blank.

[5] = Experiment I, 10 mg/kg oral, MPTP 50 mg/kg s.c., control 71 ± 11, *P < 0.05, **P < 0.01
[6] = Experiment I, 30 mg/kg oral, MPTP 50 mg/kg s.c., control 71 ± 11, *P < 0.05, **P < 0.01

CN(C)CCCN1c2ccccc2CCc2ccc(Cl)cc21 [Clomipramine, clomipramine]
response vs control in vivo at 10 mg/kg [1]: 74 ± 13%
response vs control in vivo at 30 mg/kg [1]: 74 ± 14%

CNCCCN1c2ccccc2CCc2ccccc21 [Desipramine, desipramine]
response vs control in vivo at 10 mg/kg [1, 5]: 74 ± 15%
response vs control in vivo at 30 mg/kg [1, 6]: 79 ± 18%
Amount of Norepinephrine ([2]; 0.625 mg/kg oral): 35 ± 4 ng/g
Amount of Norepinephrine ([2]; 1.25 mg/kg oral): 74 ± 26 ng/g
Amount of Norepinephrine ([2]; 2.5 mg/kg oral): 211 ± 79 ng/g
mortality at 0.5 h ([3]; 200 mg/kg oral): 0%
mortality at 1 h ([3]; 200 mg/kg oral): 0%
mortality at 2 h ([3]; 200 mg/kg oral): 0%
mortality at 4 h ([3]; 200 mg/kg oral): 0%
mortality at 18 h ([3]; 200 mg/kg oral): 0%
mortality at 24 h ([3]; 200 mg/kg oral): 0%
mortality at 0.5 h ([3]; 800 mg/kg oral): 100%
mortality at 1 h ([3]; 800 mg/kg oral): 100%
mortality at 2 h ([3]; 800 mg/kg oral): 100%
mortality at 4 h ([3]; 800 mg/kg oral): 100%
mortality at 18 h ([3]; 800 mg/kg oral): 100%
mortality at 24 h ([3]; 800 mg/kg oral): 100%

CN(C)CC/C=C1\c2ccccc2CSc2ccccc21 [Dosulepin, dosulepin]
response vs control in vivo at 10 mg/kg [1, 5]: 70 ± 13%
response vs control in vivo at 30 mg/kg [1, 6]: 77 ± 12%

CN(C)CCCN1c2ccccc2CCc2ccccc21 [Imipramine, imipramine]
IC50 [4]: 15 µM

CNCCCC12CCC(c3ccccc31)c1ccccc12 [Maprotiline, maprotiline]
response vs control in vivo at 10 mg/kg [1]: 65 ± 17%
response vs control in vivo at 30 mg/kg [1]: 74 ± 17%

CN[C@@H](C)Cc1ccccc1 [Methamphetamine, methamphetamine]
response vs control in vivo at 3 mg/kg ([1]; Experiment I, 3 mg/kg oral, MPTP 50 mg/kg s.c., control 71 ± 11, *P < 0.05, **P < 0.01): 97 ± 14%
response vs control in vivo at 3 mg/kg ([1]; Experiment II, 3 mg/kg oral, MPTP 50 mg/kg s.c., control 88 ± 20, *P < 0.05): 102 ± 21%
response vs control in vivo at 3 mg/kg [1]: 91 ± 20%

CN1CCN2c3ccccc3Cc3ccccc3C2C1 (centres unmarked) [Mianserin, mianserin]
response vs control in vivo at 10 mg/kg [1]: 72 ± 16%
response vs control in vivo at 30 mg/kg [1]: 69 ± 8%
